Test results as given in US9598393B2, “Structural variants of mycolactones for use in modulating inflammation, immunity and pain” (priority 2011, dated 2017).
Read-outs that look alike come from different tables or passages of the source.

What was measured:
[1] = test system: CD62-L receptor expression by human peripheral blood cells (PBLs); assay: T cell homing: expression of CD62-L receptor, flow cytometry; assay type: cell-based; details: for CD62-L expression (MFI: mean fluorescence intensity) (D) % relative to control / IC50: human PBLs, 72 h; for IC50: % inhibition relative to control, read-out: CD62-L expression (D): IC50 value (concentration at which the compound induces 50% of mycolactone maximal activity); for CD62-L expression (D): corresponding % of mycolactone activity (in brackets): relative to mycolactone (100%)
Method: (D) The effect of mycolactone and variants on T cell homing was assessed through their inhibitory effect on the expression of CD62-L receptor by human peripheral blood cells (PBLs). Human PBLs were isolated from total blood by Ficoll density gradient centrifugation. They were incubated in 96-well plates (10^5 cells/well in RPMI 1640 medium supplemented with 10% fetal calf serum and 2 mM L-Glutamine) with mycolactone or variant for 72 h. Cells were then fixed for 20 min in 4% paraformaldehyde (PFA) and stained with an anti-CD62-L antibody coupled with phycoerythrin in a solution of PBS, BSA 0.5%, saponin 0.05%, then analysed by flow cytometry.

[2] = test system: IL-2 production by Jurkat T cells; assay: Immunosuppressive activity: activation-induced IL-2 production, ELISA; assay type: cell-based, human; details: for Cytokine production (M.A.: mean absorbance) (C) % relative to control / IC50: Jurkat T cells; for Cytokine production (M.A.: mean absorbance) (C) % relative to control: PMA + calcium ionophore, IL-2 ELISA; for IC50: IL-2, % inhibition relative to control, read-out: Cytokine production (C): IC50 value (concentration at which the compound induces 50% of mycolactone maximal activity); for Cytokine production (C): corresponding % of mycolactone activity (in brackets): relative to mycolactone (100%)
Method: (C) The immunosuppressive activity of mycolactone and variants was measured on Jurkat T cells (ATCC®; TIB-152™ clone E6-1), as models of human T lymphocytes. Cells were inoculated in 96-well plates (5×10^5 cells/well in RPMI 1640 medium supplemented with 10% fetal calf serum and 2 mM L-Glutamine) then incubated with serial dilutions of the various compounds for 4 h, and stimulated for 20 h with 50 ng/ml phorbol-12-myristate-13-acetate (PMA) and 1 μg/ml calcium ionophore. The production of IL-2 was then assessed in culture supernatants by ELISA.

[3] = test system: epithelial HeLa cell line; assay: Cytopathic activity, MTT assay (effect on global cell metabolic activity); assay type: cell-based, human; details: for Metabolic activity (MA: mean absorbance) (A) % relative to control / IC50: HeLa cells, 48 h, MTT; for IC50: % inhibition relative to control, read-out: Metabolic activity (A): IC50 value (concentration at which the compound induces 50% of mycolactone maximal activity); for Metabolic activity (A): corresponding % of mycolactone activity (in brackets): relative to mycolactone (100%)
Method: (A) The cytopathic activity of mycolactone and variants was assessed in a [3-(4,5-Dimethylthiazol-2-yl)-2,5-Diphenyltetrazolium Bromide] (MTT) assay, using the epithelial HeLa cell line (ATCC®; CCL-2) as a model. Briefly, HeLa cells were plated in 96-well plates (10^4 cells/well) in Dulbecco's Modified Eagle culture medium supplemented with 10% fetal calf serum and 2 mM L-Glutamine. After 16 h, mycolactone or variants dilutions (final concentration 0.4-8 μM) were added to the wells, and incubated with the cells for 48 h, prior to the addition of MTT at 50 μg/ml. After 4 h, culture supernatants were removed and the formed formazan crystals dissolved in dimethyl sulfoxide (DMSO) for absorbance measurement.

HeLa cell = assay: Cytotoxicity by Trypan Blue dye exclusion (cell viability); assay type: cell-based, human
Method: (B) HeLa cell death being negligible in the concentration and time frame conditions used in (A), the cytotoxicity of 16 μM mycolactone and variants was evaluated after 48 h of incubation by cell exclusion of the Trypan Blue dye. Here, one part of Trypan blue (0.4% in phosphate-buffered saline PBS) was mixed with one part cell suspension (recovered from cell culture wells by trypsin treatment). The mixture was incubated for 3 min at room temperature and unstained (viable) and stained (nonviable) cells counted separately with a hemacytometer.

[4] = Formalin-induced acute pain model; assay type: in vivo; details: intraperitoneally 60 minutes before formalin, Mycolactone 0.5 mg/kg; for activity against inflammatory pain (global score of pain, late phase 10-40 min): variant 22 5 mg/kg
Method: The analgesic properties of Mycolactone and variant 22 were tested in the formalin-induced acute pain model (Encyclopedia of Psychopharmacology, Volume 2, p. 111).
Briefly, Mycolactone and variant 22 were administered intraperitoneally at 0.5 and 5 mg/kg respectively, 60 minutes before the subcutaneous injection of 10 μl of a 5% formalin solution of the right hind-leg. Two negative control groups, injected with PBS (neutral) or ethanol vehicle (vehicle) were tested in the same conditions. A group injected with 3 mg/kg morphin 15 minutes before formalin injection was used as a positive reference.
The time spent in licking/biting and the number of jumps during the early phase (0-5 min) and the late phase (10-40 min) were recorded, as indicators of acute and inflammatory pain, respectively. The graphs in FIG. 5 compare the global score of pain (rank sum of licking/biting time and jump number) in the five groups of animals (Mann-Whitney test on trimmed means; n≧6; *P<0.05 **P<0.01 vs. neutral; # P<0.05, # P<0.01 vs. vehicle.

macrophages = details: Coutanceau et al., 2005; cited from earlier work
T cell trafficking = details: Guenin-Macé et al., 2011; cited from earlier work
dendritic cells = details: Coutanceau et al., 2007; cited from earlier work

Molecule | CD62-L expression (MFI: mean fluorescence intensity) (D) % relative to control ([1]; 4 μM) | CD62-L expression (MFI: mean fluorescence intensity) (D) % relative to control ([1]; 8 μM) | IC50 ([1]; T-cell) | CD62-L expression (D): corresponding % of mycolactone activity (in brackets) [1] | Cytokine production (M.A.: mean absorbance) (C) % relative to control ([2]; 0.4 μM) | Cytokine production (M.A.: mean absorbance) (C) % relative to control ([2]; 4 μM) | Cytokine production (M.A.: mean absorbance) (C) % relative to control ([2]; 8 μM) | IC50 ([2]; Homo sapiens) | Cytokine production (C): corresponding % of mycolactone activity (in brackets) [2] | Metabolic activity (MA: mean absorbance) (A) % relative to control ([3]; 0.4 μM) | Metabolic activity (MA: mean absorbance) (A) % relative to control ([3]; 4 μM) | Metabolic activity (MA: mean absorbance) (A) % relative to control ([3]; 8 μM) | Metabolic activity (A): corresponding % of mycolactone activity (in brackets) [3] | activity against inflammatory pain (global score of pain, late phase 10-40 min) [4] | also measured
C/C(=C\[C@@H](C)[C@H](O)C[C@@H](C)O)C[C@H](C)[C@H]1C/C=C/C[C@H](C)[C@@H](O)CCCC(=O)O1 [Compound 11c, (6 S,7 S,9E,12R)-12-[(2S,4E,6R,7R,9R)-7,9-dihydroxy-4,6-dimethyldec-4-en-2-yl]-6-hydroxy-7-methyl-1-oxacyclododec-9-en-2-one] | 20% | 40% | 16 µM | 0.2% | 0% | 30% | 50% | 8 µM | 1.2% | 0% | 30% | 40% | 20% | – | inhibition of CD62-L expression by lymphocytes [1]: significant inhibition; inhibition of IL-2 production by lymphocytes [2]: significant inhibition; effect on the metabolic activity of HeLa cells [3]: showed inhibitory effect; IC50 ([3]; Homo sapiens): 16 µM; cytotoxicity (HeLa cell; in the conditions tested): not cytotoxic
CC(=C\C=C\C(C)=C\[C@H](O)[C@@H](O)C[C@H](C)O)/C=C(C)/C=C/C(=O)O[C@H]1CCCC(=O)O[C@@H](C(C)C)C/C=C/C[C@@H]1C [Compound 22, (6S,7S,9E,12R)-7-methyl-2-oxo-12-(propan-2-yl)-1-oxacyclododec-9-en-6-yl(2E,4E,6E,8E,10E,12S,13S,15S)-12,13,15-trihydroxy-4,6,10-trimethylhexadeca-2,4,6,8,10-pentaenoate] | 60% | 70% | 3.7 µM | 0.8% | 15% | 58% | 95% | 3 µM | 3.3% | 0% | 0% | 0% | – | effective | reduction of CD62-L expression ([1]; at concentrations >4 μM): significant reduction; reduction of IL-2 production ([2]; at concentrations >4 μM): significant reduction; cytopathic effect ([3]; at concentrations <16 μM): no cytotoxic nor cytopathic effect; cytotoxic effect (HeLa cell; at concentrations <16 μM): no cytotoxic nor cytopathic effect
Mycolactone [reference compound] | 100% | 100% | – | 100% | 99% | 100% | 100% | – | 100% | 70% | 80% | 100% | 100% | significant activity | activity against acute pain (global score of pain, early phase 0-5 min) [4]: significant activity; CD62-L expression (MFI: mean fluorescence intensity) (D) % relative to control ([1]; 0.4 μM): 100%; expression of CD62-L ([1]; at concentrations >0.4 μM): totally suppressed; IC50 [1]: < 0.03 µM; IC50 [2]: 0.1 µM; activation-induced production of IL-2 by human lymphocytes ([2]; at concentrations >0.4 μM): complete blockade; release of inflammatory TNF by macrophages (macrophages): blocks the release of inflammatory TNF; IC50 [3]: 3.5 µM; cell viability ([3]; at concentrations >0.4 μM): markedly reduced cell viability; T cell trafficking in vivo (T cell trafficking): severely impairs T cell trafficking; production of chemotactic signals by dendritic cells (dendritic cells): inhibits the production of chemotactic signals
